Laboratory results published in patent US5177082A, “Huperzines and analogs” (priority 1990, dated 1993).
“And” between values parts separate entries of the source, which are not always exact repeats. Identical values can stand only once. “Also recorded” adds a separate entry of the source. Like-named read-outs stand apart in the source and are kept apart here.

Legend:
dogs = test: Subacute toxicity in dogs; type: in vivo, dog
Text: Rabbits and dogs: there were 20 rabbits divided into four groups. […] The control group was given im injections of distilled water. […] When the time arrived, the rabbits and dogs were dissected. The routine blood tests glutamic-pyruvic transaminase, zinc turbidity, urea nitrogen and creatinine were all normal. […] The stimulation of the latter was even more outstanding.

[1] = system: Sciatic Nerve/Tibialis Muscle Preparation; test: Anesthetized rabbit sciatic nerve/tibialis muscle preparation; type: in vivo; details: rabbits
Experimental: Anesthesized Rat and Rabbit Sciatic Nerve/Tibialis Muscle Preparation
Anesthesia was produced in rats by ip injections of 30 mg/kg of pentobarbital and in rabbits by iv injections of 1 g/kg of urethane. Electric stimulation of the periphery of the sciatic nerve (5-10 V, 0.5 ms, 1 c/10 s) caused tibialis contraction which was recorded on smoked paper.

myasthenia gravis = test: Clinical curative effects in 128 cases with myasthenia gravis; type: in vivo, human
Experimental: 128 patients with correctly diagnosed myasthenia gravis were used in the trial.
Patients affected with myasthenia gravis (MG) with typical clinical symptoms which improved after using neostigmine were the subjects for testing and verification. […] It was generally used for at least ten days and each dosage was 0.4-0.5 mg. […] The injections were all given in the morning and on the morning prior to the injections anticholinesterase drugs were discontinued. Neither the patients nor the doctors knew which drug was being injected. Later, the symptoms, the duration of the improvements, if any, which were obtained by the drugs and the side effects were recorded. Based on these factors, the relative merits of the two drugs were established.
(+) (++) and (+++) was used as the standard for the seriousness of the symptoms, (+++) was the most serious.
1. Prolapse of eyelids: the tear width of the eye after use of the drug was measured. If there was an increase of 0.2 cm above that before use of the drug, then the effect was "+", if the increase was 0.4 cm then the effect was "++" and if the increase was 0.6 cm then the effect was "+++".
2. Impairment to eyeball activity: when the eyeball was basically fixed and immovable then it was "+++", those who had reoccuring major complaints and basically normal activities were "+" and those in an intermediate state were "++".
3. Difficulties in swallowing: when swallowing was still possible but there was a feeling of difficulty or there was slowing of the speed of the intake of food then the patient was treated as "+"; when the patient could swallow but it was very slow then the patient was "++"; when the patient was basically unable to swallow the rating was "+++".
4. Systemic myasthenia: patients who were able to walk but felt very exhausted were "+"; patients who were able to stand up and walk with difficulty a short distance in the ward or corridor were "++"; and patients who could not get out of bed were "+++".

Fetus of Pregnant Mice = details: mouse, in vivo
Text: […]. […] The latter produced various types of externally observed deformities: short tails (44/97), short and no tails (18/97), back legs reversed (13/97), open eyes (7/97), exposed brains and spina bifida (1/97), sunken noses (1/97) and cleft palates (39/40). […].

C/C=C1\[C@H]2C=C(C)C[C@]1(N)c1ccc(=O)[nH]c1C2 [Huperzine A, (5R, 9R, 11E)-5-amino-11-ethylidene-5,6,9,10-tetrahydro-7-methyl-5,9-methanocycloocta[b]pyridin-2(1H)-one]
microscopic examination, heart (dogs; dogs): light fat infiltration
routine blood tests, glutamic-pyruvic transaminase, zinc turbidity, urea nitrogen and creatinine (dogs; dogs): all normal
symptoms (dogs; dogs, 0.6 mg/kg im, 180 days): noticeable whole body muscle fiber twitching
ECG (dogs; dogs, im 180 days): no drug induced abnormalities
pathological changes of internal organs (dogs; dogs, six months, 90 times (MG) / 750 times (senile dementia) clinical dosage): no noticeable pathological changes of internal organs were observed
abnormalities (dogs; dogs, small dosages (0.3 mg/kg im), 180 days): No abnormalities were observed
microscopic examination, cerebral cortex (dogs; each dosage group of dogs): cerebral spongiocyte growth and myophagia
minimal effective dose ([1]; Oryctolagus cuniculus, iv, read-out: Lowest Effective Dosage for Enhancing Muscle Contraction): 0.03 mg/kg
Strength of Effect ([1]; galanthamine = 1.0): 16.6
effect on electrically stimulated muscle contraction ([1]; iv (Huperzine A 30 μg/kg)): enhancement of the amplitude of the electrically stimulated muscle contraction
Strength of Effect ([1]; physostigmine = 1.0): 4
initial effect within 15-30 minutes, % (myasthenia gravis; 127 cases): 85.03%
initial effect within 15-30 minutes, No. of Cases (myasthenia gravis; 127 cases): 108 cases
optimal curative effect within 45-60 minutes, % (myasthenia gravis; 127 cases): 51.18%
optimal curative effect within 45-60 minutes, No. of Cases (myasthenia gravis; 127 cases): 65 cases
time of maximal effect, longest (myasthenia gravis; 127 cases): 240 min
time of maximal effect, shortest (myasthenia gravis; 127 cases): 18 min
initial effect time, average (myasthenia gravis; X ± SD, 127 cases): 21.92 ± 19.56 min and 21.92 min
time of maximal effect, average (myasthenia gravis; X ± SD, 127 cases): 50.34 ± 25.65 min and 50.34 min
average action time among the 40 cases (myasthenia gravis; cases exceeding 6 hours): 10.42 ± 5.80 h
longest action time among the 40 cases (myasthenia gravis; cases exceeding 6 hours): 24 h
shortest action time among the 40 cases (myasthenia gravis; cases exceeding 6 hours): 6 h
sustaining time of effect, shortest (myasthenia gravis; eye muscle type): 0.66 h
action time exceeded 6 hours, % (myasthenia gravis; human, in vivo): 31.64%
action time exceeded 6 hours, cases (myasthenia gravis; human, in vivo): 40 cases
action time reached 4-6 hours, % (myasthenia gravis; human, in vivo): 34.64%
action time reached 4-6 hours, cases (myasthenia gravis; human, in vivo): 44 cases
average action time (myasthenia gravis; human, in vivo): 5.94 ± 4.92 h
cases with marked effects (myasthenia gravis; human, in vivo): 71 cases
cases with marked effects, % (myasthenia gravis; human, in vivo): 55.46%
initial effect time, longest (myasthenia gravis; im injection): 222 min
physical symptom initial improvement time, longest (myasthenia gravis; im injection): 3.7 h
physical symptom initial improvement time, shortest (myasthenia gravis; im injection): 10 min
effect on myasthenia gravis condition (myasthenia gravis; im injection, 0.4 mg): effective anticholinesterase drug for treating myasthenia gravis; also recorded: able to definitely improve the myasthenia gravis condition
cases rated effective (myasthenia gravis; not marked): 56 cases
cases rated effective, % (myasthenia gravis; not marked): 43.75%
cases for which drug was effective (myasthenia gravis; of 128): 127 cases
cases for which drug was effective, % (myasthenia gravis; of 128): 99.21%
sustaining time of effect, longest (myasthenia gravis; systemic and eye muscle type): 24 h
number of embryo absorptions and stillborn fetuses vs control (Fetus of Pregnant Mice): markedly greater than those of the control group
abnormal embryos (Fetus of Pregnant Mice; ip): Neither of the two methods of giving the drug resulted in abnormal embryos
Body length of fetus (Fetus of Pregnant Mice; ip, 0.019 mg/kg): 2.2 ± 0.3 cm
Body weight of fetus (Fetus of Pregnant Mice; ip, 0.019 mg/kg): 1.24 ± 0.22 g
Number absorbed (Fetus of Pregnant Mice; ip, 0.019 mg/kg): 1.0 ± 1.7
Number of fetuses (Fetus of Pregnant Mice; ip, 0.019 mg/kg): 8 ± 3
number of stillbirths (Fetus of Pregnant Mice; ip, 0.019 mg/kg): 0.22 ± 0.44
Body length of fetus (Fetus of Pregnant Mice; ip, 0.038 mg/kg): 2.2 ± 0.3 cm
Body weight of fetus (Fetus of Pregnant Mice; ip, 0.038 mg/kg): 1.2 ± 0.2 g
Number absorbed (Fetus of Pregnant Mice; ip, 0.038 mg/kg): 0.5 ± 0.8
Number of fetuses (Fetus of Pregnant Mice; ip, 0.038 mg/kg): 8 ± 2
number of stillbirths (Fetus of Pregnant Mice; ip, 0.038 mg/kg): 0.22 ± 0.44
Body length of fetus (Fetus of Pregnant Mice; ip, 0.08 mg/kg): 2.3 ± 0.1 cm
Body weight of fetus (Fetus of Pregnant Mice; ip, 0.08 mg/kg): 1.2 ± 0.1 g
Number absorbed (Fetus of Pregnant Mice; ip, 0.08 mg/kg): 0
Number of fetuses (Fetus of Pregnant Mice; ip, 0.08 mg/kg): 9 ± 2
number of stillbirths (Fetus of Pregnant Mice; ip, 0.08 mg/kg): 0.17 ± 0.39
Body length of fetus (Fetus of Pregnant Mice; ip, 0.19 mg/kg): 2.1 ± 0.2 cm
Body weight of fetus (Fetus of Pregnant Mice; ip, 0.19 mg/kg): 1.0 ± 0.2 g
Number absorbed (Fetus of Pregnant Mice; ip, 0.19 mg/kg): 0.73 ± 1.7
Number of fetuses (Fetus of Pregnant Mice; ip, 0.19 mg/kg): 9 ± 4
number of stillbirths (Fetus of Pregnant Mice; ip, 0.19 mg/kg): 0.13 ± 0.35
Body length of fetus (Fetus of Pregnant Mice; ip, 0.38 mg/kg): 2.0 ± 0.3 cm
Body weight of fetus (Fetus of Pregnant Mice; ip, 0.38 mg/kg): 1.1 ± 0.3 g
Number absorbed (Fetus of Pregnant Mice; ip, 0.38 mg/kg): 2.1 ± 2.4
Number of fetuses (Fetus of Pregnant Mice; ip, 0.38 mg/kg): 6 ± 4
number of stillbirths (Fetus of Pregnant Mice; ip, 0.38 mg/kg): 0.8 ± 1.1
Body length of fetus (Fetus of Pregnant Mice; ip, 0.39 mg/kg): 1.9 ± 0.1 cm
Body weight of fetus (Fetus of Pregnant Mice; ip, 0.39 mg/kg): 0.95 ± 0.18 g
Number absorbed (Fetus of Pregnant Mice; ip, 0.39 mg/kg): 0.75 ± 1.0
Number of fetuses (Fetus of Pregnant Mice; ip, 0.39 mg/kg): 8 ± 4
number of stillbirths (Fetus of Pregnant Mice; ip, 0.39 mg/kg): 0.9 ± 1.1
